Source: patent publication US6258837A, “Neuropeptide Y receptor antagonist” (Banyu Pharmaceutical Co., Ltd., priority 1997, dated 2001)

Legend:
human NPY Y5 receptor = target: T1, human NPY Y5 receptor (Homo sapiens, UniProt Q15761); assay: test of inhibition of NPY binding ([125I]peptide YY binding to membranes of cells expressing the NPY Y5 receptor)
T1 construct: expressed in transfected cells; host or cells: COS-7, CHO and LM(tk-)
T1 sequence (Q15761 1-445): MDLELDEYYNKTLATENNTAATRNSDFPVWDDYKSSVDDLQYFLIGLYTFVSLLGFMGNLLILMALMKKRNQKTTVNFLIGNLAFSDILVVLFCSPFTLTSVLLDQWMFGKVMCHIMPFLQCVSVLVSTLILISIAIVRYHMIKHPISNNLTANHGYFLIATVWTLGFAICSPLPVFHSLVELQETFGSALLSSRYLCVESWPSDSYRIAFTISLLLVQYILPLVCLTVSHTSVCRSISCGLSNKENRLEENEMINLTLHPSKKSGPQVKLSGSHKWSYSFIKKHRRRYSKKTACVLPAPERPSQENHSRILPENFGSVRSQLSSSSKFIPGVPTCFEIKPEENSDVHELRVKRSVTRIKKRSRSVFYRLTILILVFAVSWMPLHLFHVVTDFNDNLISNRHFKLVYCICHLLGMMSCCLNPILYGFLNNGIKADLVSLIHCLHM
Excerpt: cDNA Sequence encoding a human NPY Y5 receptor [International Publication WO 96/16542] was cloned into expression vectors pcDNA3, pRc/RSV (manufactured by Invitrogen) and pCI-neo (manufactured by Promega). Using the cationic lipid method [see Proceedings of the National Academy of Science of the United States of America, vol.84, p.7413 (1987)], host cells COS-7, CHO and LM(tk-) (American Type Culture Collection) were transfected with the thus prepared expression vectors to obtain cells in which the NPY Y5 receptor had been expressed.
After washing with 50 mM Tris buffer, pH 7.4, containing 0.3% BSA, radioactivity on the glass filter was measured using a gamma counter. Non-specific binding was measured in the presence of 1 μM of peptide YY to calculate a concentration of each compound to be tested which concentration is needed to inhibit 50% of the specific binding of the peptide YY (IC50 value) [see Endocrinology, vol.131, p.2090 (1992)].

SD male rats [1] = assay: test of inhibition of feeding behavior induced by bPP; format: in vivo, rat; settings: oral, one hour before bPP (5 μg/head/10 μl, lateral cerebral ventricle); food intake during two hours
Procedure: Under pentobarbital anesthesia (single intraperitoneal injection of 50 mg/kg), a chronic guide cannula (outer diameter 0.8 mm; inner diameter 0.5 mm; length 10 mm) was stereotactically inserted in a right lateral cerebral ventricle of each of SD male rats (7 to 8-week-old; 200 to 300 g) and fixed using a dental resin. A tip of the guide cannula was positioned 0.9 mm behind a bregma, 1.2 mm at the right of a median line and in the depth of 1.5 mm from the brain surface. An inner needle was inserted such that its tip projected from the tip of the guide cannula by about 2 mm and arrived to a lateral cerebral ventricle. After a recovery period of about one week, a bovine pancreatic polypeptide (bpp, 5 μg/head/10 μl) was administered to the lateral cerebral ventricle. A compound to be tested was orally administered one hour before the administration of bpp and food intake during two hours from the administration was measured. In this connection, the compound to be tested was administered after dissolving in a 0.5% aqueous methyl cellulose solution and bpp was administered after dissolving in 10 mM phosphate buffered saline.

SD male rats [2] = assay: acute toxicity test; format: in vivo, rat; settings: 500 mg/kg oral
Procedure: A compound to be tested in an amount of 500 mg/kg was orally administered to each of SD male rats (10-week-old; 300 to 400 g). After immediately, 5 minutes, 30 minutes, 1 hour, 2 hours, 4 hours, 6 hours, 8 hours and 24 hours from the administration, the condition of each rat was observed. And, after 24 hours from the administration, the rat was killed by dehematizing via carotid artery and then laparotomized in order to observe the presence or absence of any change in abdominal organs by the naked eye. In this connection, the compound to be tested was administered in a dose of 5 ml/kg after suspending in a 0.5% aqueous methyl cellulose solution.

In the case of CC1(C)CC(=O)C(C2C3=C(CC(C)(C)CC3=O)Oc3ccccc32)C(=O)C1 (racemic) [compound [I], 3,3-dimethyl-9-(4,4-dimethyl-2,6-dioxo-cyclohexyl)-1-oxo-1,2,3,4-tetrahydroxanthene], the IC50 (human NPY Y5 receptor; [125I] peptide YY, 25° C., 2 hours, pH 7.4, membrane preparations, read-out: concentration needed to inhibit 50% of the specific binding of the peptide YY (IC50 value)) is reported as 27 nM, the “inhibition of the binding of the peptide YY to the NPY Y5 receptor (in words)” value (human NPY Y5 receptor; peptide YY (a homologue of NPY)) is reported as “strongly inhibited the binding” and the “inhibition of the increase in food intake induced by bPP” value (SD male rats [1]) is reported as “significantly inhibits the increase in food intake”. For the same compound, the “change in abdominal organs observed by the naked eye (acute toxicity)” value (SD male rats [2]; 24 hours after administration) was “abdominal organs were observed to be unchanged” and the “general health of each rat (acute toxicity)” value (SD male rats [2]; until 24 hours after administration) was “no abnormality in general health of each rat was observed”.
